Test results taken from ChEMBL document CHEMBL3137667, “[Drug-induced liver injury; fourteenth updated edition of the bibliographic database of liver injuries and related drugs]” (Gastroenterol Clin Biol, 2004).

Experiments:
[1] = Highest frequency of moderate liver toxicity observed during clinical trials, expressed as a percentage. [column '% BIOL' in source]; conditions: human
[2] = Highest frequency of acute liver toxicity observed during clinical trials, expressed as a percentage. [column '% AIGUE' in source]; conditions: human
[3] = Comments (NB not yet translated). [column 'COMMENTAIRES' in source]; conditions: human
[4] = Times to onset, minimal and maximal, observed in the indexed observations. [column 'DELAI' in source]; conditions: human
[5] = human, serum
[6] = human, serum; remark: listed apart in the source
[7] = human
[8] = human; remark: listed apart in the source
[9] = human; remark: listed apart in the source
[10] = human, serum, 4383 h
[11] = human; remark: listed apart in the source
[12] = human; remark: listed apart in the source
[13] = human; remark: listed apart in the source
[14] = human; remark: listed apart in the source
[15] = human; remark: listed apart in the source
[16] = human; remark: listed apart in the source
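For Hepatotoxicity (association with vascular disease) in this document: count of indexed literature references reporting vascular liver injury in humans, e.g. peliosis hepatitis, hepatic veno-occlusive disease or Budd-Chiari syndrome.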
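For Hepatotoxicity (benign tumour) in this document: value is a count of indexed literature references citing a benign tumour confirmed by histopathology.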
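For Hepatotoxicity (choleostasis) in this document: human cholestatic liver injury, shown by histopathology or by peak ALT or AST elevation over alkaline phosphatase ratio below 2, value counts indexed literature reports.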
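For Hepatotoxicity (chronic liver disease) in this document: chronic liver injury confirmed by histopathology or persistently raised serum aminotransferase activity beyond 6 months, value given as the count of indexed literature references.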
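For Hepatotoxicity (cirrhosis) in this document: value is a count of indexed literature references reporting cirrhosis confirmed by histopathology.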
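For Hepatotoxicity (cytolytic) in this document: human cytolytic liver injury, shown by histopathology or by a ratio above 5 of peak ALT or AST elevation to alkaline phosphatase elevation, value counts indexed references.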
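For Hepatotoxicity (granulomatous hepatitis) in this document: value is a count of indexed literature references reporting granulomatous liver disease confirmed by histopathology.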
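For Hepatotoxicity (malignant tumour) in this document: malignant tumour confirmed by histopathology, value gives the count of indexed literature references reporting it.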
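For Hepatotoxicity (severe hepatitis) in this document: human clinical data: severe hepatitis, meaning potentially life-threatening liver failure or clinically observed cases, the value counts how many indexed literature references report it.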
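For Hepatotoxicity (steatosis) in this document: steatosis confirmed by histopathology, value is the count of indexed references.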

In the case of RITUXIMAB, the “Hepatotoxicity (moderate)” value [1] was 5.6%, the “Hepatotoxicity (acute)” value [2] was 0% and the “Hepatotoxicity (comment)” value [3] was “REACTIVATION_HVB”. For the same compound, the “Hepatotoxicity (time to onset)” value [4] was 2 months - 7 months, the “Hepatotoxicity (moderate)” value [5] was 1 and the “Hepatotoxicity (acute)” value [6] was 4. The “Hepatotoxicity (cytolytic)” value [7] was 4, the “Hepatotoxicity (choleostasis)” value [8] was 0 and the “Hepatotoxicity (severe hepatitis)” value [9] was 3. For the same compound, the “Hepatotoxicity (chronic liver disease)” value [10] was 0, the “Hepatotoxicity (cirrhosis)” value [11] was 0 and the “Hepatotoxicity (granulomatous hepatitis)” value [12] was 0. The “Hepatotoxicity (association with vascular disease)” value [13] was 0, the “Hepatotoxicity (steatosis)” value [14] was 0 and the “Hepatotoxicity (malignant tumour)” value [15] was 0. For the same compound, the “Hepatotoxicity (benign tumour)” value [16] was 0.
With `C1CCC(C(CC2CCCCN2)C2CCCCC2)CC1` (stereo not drawn) [PERHEXILINE] the “Hepatotoxicity (moderate)” value [1] was 30%, the “Hepatotoxicity (acute)” value [2] was 0% and the “Hepatotoxicity (comment)” value [3] was “I/AMIODARONE/BEZAFIBRATE/PAROXETINE INCLUSIONLAMELLAIRE”. For the same compound, the “Hepatotoxicity (time to onset)” value [4] was 3 weeks - 12 years, the “Hepatotoxicity (moderate)” value [5] was 18 and the “Hepatotoxicity (acute)” value [6] was 11. For the same compound, the “Hepatotoxicity (cytolytic)” value [7] was 9, the “Hepatotoxicity (choleostasis)” value [8] was 2 and the “Hepatotoxicity (severe hepatitis)” value [9] was 5. The “Hepatotoxicity (chronic liver disease)” value [10] was 1, the “Hepatotoxicity (cirrhosis)” value [11] was 22 and the “Hepatotoxicity (granulomatous hepatitis)” value [12] was 1. The “Hepatotoxicity (association with vascular disease)” value [13] was 0, the “Hepatotoxicity (steatosis)” value [14] was 10 and the “Hepatotoxicity (malignant tumour)” value [15] was 0. For the same compound, the “Hepatotoxicity (benign tumour)” value [16] was 0.
For `N=C(N)c1ccc(/C=C/c2ccc(C(=N)N)cc2O)cc1` [HYDROXYSTILBAMIDINE], the “Hepatotoxicity (moderate)” value [1] was 0%, the “Hepatotoxicity (acute)” value [2] was 0% and the “Hepatotoxicity (comment)” value [3] was “#S.REYE”. For the same compound, the “Hepatotoxicity (time to onset)” value [4] was 1 month, the “Hepatotoxicity (moderate)” value [5] was 0 and the “Hepatotoxicity (acute)” value [6] was 1. The “Hepatotoxicity (cytolytic)” value [7] was 0, the “Hepatotoxicity (choleostasis)” value [8] was 0 and the “Hepatotoxicity (severe hepatitis)” value [9] was 0. The “Hepatotoxicity (chronic liver disease)” value [10] was 0, the “Hepatotoxicity (cirrhosis)” value [11] was 0 and the “Hepatotoxicity (granulomatous hepatitis)” value [12] was 0. The “Hepatotoxicity (association with vascular disease)” value [13] was 0, the “Hepatotoxicity (steatosis)” value [14] was 1 and the “Hepatotoxicity (malignant tumour)” value [15] was 0. The “Hepatotoxicity (benign tumour)” value [16] was 0.
With `CC(=O)[C@H]1CC[C@H]2[C@@H]3CCC4=CC(=O)CC[C@]4(C)[C@H]3CC[C@]12C` [PROGESTERONE] the “Hepatotoxicity (moderate)” value [1] was 13.3%, the “Hepatotoxicity (acute)” value [2] was 0% and the “Hepatotoxicity (comment)” value [3] was “HNF”. For the same compound, the “Hepatotoxicity (time to onset)” value [4] was 1 week - 40 weeks, the “Hepatotoxicity (moderate)” value [5] was 2 and the “Hepatotoxicity (acute)” value [6] was 3. For the same compound, the “Hepatotoxicity (cytolytic)” value [7] was 2, the “Hepatotoxicity (choleostasis)” value [8] was 1 and the “Hepatotoxicity (severe hepatitis)” value [9] was 0. The “Hepatotoxicity (chronic liver disease)” value [10] was 0, the “Hepatotoxicity (cirrhosis)” value [11] was 0 and the “Hepatotoxicity (granulomatous hepatitis)” value [12] was 0. For the same compound, the “Hepatotoxicity (association with vascular disease)” value [13] was 0, the “Hepatotoxicity (steatosis)” value [14] was 0 and the “Hepatotoxicity (malignant tumour)” value [15] was 0. For the same compound, the “Hepatotoxicity (benign tumour)” value [16] was 1.
With `CC(=O)[C@@]1(O)CC[C@H]2[C@@H]3C[C@H](C)C4=CC(=O)CC[C@]4(C)[C@H]3CC[C@@]21C` the “Hepatotoxicity (moderate)” value ([1]; Liver) was 4.9%, the “Hepatotoxicity (acute)” value ([2]; Liver) was 3.3% and the “Hepatotoxicity (comment)” value [3] was “LITHIASE”. For the same compound, the “Hepatotoxicity (time to onset)” value [4] was 1 month - 1.7 years, the “Hepatotoxicity (moderate)” value [5] was 5 and the “Hepatotoxicity (acute)” value [6] was 3. The “Hepatotoxicity (cytolytic)” value ([7]; Liver) was 1, the “Hepatotoxicity (choleostasis)” value ([8]; Liver) was 1 and the “Hepatotoxicity (severe hepatitis)” value ([9]; Liver) was 1. The “Hepatotoxicity (chronic liver disease)” value [10] was 0, the “Hepatotoxicity (cirrhosis)” value [11] was 0 and the “Hepatotoxicity (granulomatous hepatitis)” value ([12]; Liver) was 0. The “Hepatotoxicity (association with vascular disease)” value [13] was 0, the “Hepatotoxicity (steatosis)” value [14] was 0 and the “Hepatotoxicity (malignant tumour)” value [15] was 0. The “Hepatotoxicity (benign tumour)” value [16] was 0.
In the case of `O=C1CCC(N2C(=O)c3ccccc3C2=O)C(=O)N1` (stereo not drawn) [THALIDOMIDE], the “Hepatotoxicity (moderate)” value [1] was 5.6%, the “Hepatotoxicity (acute)” value [2] was 0% and the “Hepatotoxicity (comment)” value [3] was “REACTIVATION_HVC”. The “Hepatotoxicity (time to onset)” value [4] was 5 days - 7 months, the “Hepatotoxicity (moderate)” value [5] was 3 and the “Hepatotoxicity (acute)” value [6] was 2. For the same compound, the “Hepatotoxicity (cytolytic)” value [7] was 2, the “Hepatotoxicity (choleostasis)” value [8] was 0 and the “Hepatotoxicity (severe hepatitis)” value [9] was 0. The “Hepatotoxicity (chronic liver disease)” value [10] was 0, the “Hepatotoxicity (cirrhosis)” value [11] was 0 and the “Hepatotoxicity (granulomatous hepatitis)” value [12] was 0. For the same compound, the “Hepatotoxicity (association with vascular disease)” value [13] was 0, the “Hepatotoxicity (steatosis)” value [14] was 0 and the “Hepatotoxicity (malignant tumour)” value [15] was 0. For the same compound, the “Hepatotoxicity (benign tumour)” value [16] was 0.
In the case of `C[C@]12C=CC(=O)C=C1CC[C@@H]1[C@@H]2CC[C@@]2(C)[C@H]1CC[C@]2(C)O` (stereo in doubt; form 1) [METHANDROSTENOLONE], the “Hepatotoxicity (moderate)” value [1] was 0%, the “Hepatotoxicity (acute)” value [2] was 0% and the “Hepatotoxicity (comment)” value [3] was “ANGIOSARCOME”. For the same compound, the “Hepatotoxicity (time to onset)” value [4] was 1 year - 2 years, the “Hepatotoxicity (moderate)” value [5] was 0 and the “Hepatotoxicity (acute)” value [6] was 3. The “Hepatotoxicity (cytolytic)” value [7] was 0, the “Hepatotoxicity (choleostasis)” value [8] was 0 and the “Hepatotoxicity (severe hepatitis)” value [9] was 0. The “Hepatotoxicity (chronic liver disease)” value [10] was 0, the “Hepatotoxicity (cirrhosis)” value [11] was 0 and the “Hepatotoxicity (granulomatous hepatitis)” value [12] was 0. For the same compound, the “Hepatotoxicity (association with vascular disease)” value [13] was 0, the “Hepatotoxicity (steatosis)” value [14] was 0 and the “Hepatotoxicity (malignant tumour)” value [15] was 2. The “Hepatotoxicity (benign tumour)” value [16] was 1.
With `O=C(O)c1cc(/N=N/c2ccc(O)c(C(=O)O)c2)ccc1O` [OLSALAZINE] the “Hepatotoxicity (moderate)” value [1] was 15%, the “Hepatotoxicity (acute)” value [2] was 0% and the “Hepatotoxicity (comment)” value [3] was “RC/SULFASALAZINE”. For the same compound, the “Hepatotoxicity (time to onset)” value [4] was 3 weeks, the “Hepatotoxicity (moderate)” value [5] was 1 and the “Hepatotoxicity (acute)” value [6] was 1. The “Hepatotoxicity (cytolytic)” value [7] was 1, the “Hepatotoxicity (choleostasis)” value [8] was 1 and the “Hepatotoxicity (severe hepatitis)” value [9] was 0. For the same compound, the “Hepatotoxicity (chronic liver disease)” value [10] was 0, the “Hepatotoxicity (cirrhosis)” value [11] was 0 and the “Hepatotoxicity (granulomatous hepatitis)” value [12] was 0. The “Hepatotoxicity (association with vascular disease)” value [13] was 0, the “Hepatotoxicity (steatosis)” value [14] was 0 and the “Hepatotoxicity (malignant tumour)” value [15] was 0. For the same compound, the “Hepatotoxicity (benign tumour)” value [16] was 0.
